Source: patent US20090143426A1, “Synthesis of 1,3,6-trisubstituted-2-carboxyquinol-4-ones as selective ET A antagonists and their use as medicaments” (priority 2007, published 2009)
pIC50: −log10 of the molar value. Entries after “also recorded” stand apart in the source; their conditions may differ.

What was measured:
[1] = tested on: LPS-induced (infection-associated) preterm labor and delivery in pregnant C57B1/6 mice; assay: Animal model of preterm birth (LPS-injected timed pregnant mice); format: in vivo, mouse
Procedure: Animal models of preterm birth. The Animal Care and Utilization Committee of the College of Pharmacy and Allied Health Professions, St. John's University approved all experimental protocols, and the research was conducted according to the requirements of NIH Guide for the Care and Use of Laboratory Animals (revised 1996). C57B1/6 mice from Taconic Laboratory were used for all experiments. Animals were housed in plastic cages in a temperature-controlled animal facility with alternating 12:12 hour light-dark cycles, with ad libitum access to food and water.
Nineteen timed pregnant C57B1/6 E15.5 mice were injected with LPS in 0.5 ml PBS at a concentration of 50 mg/kg. These mice were randomly assigned to two groups. Group A mice (n=8) received 50 mg/kg HJP272 dissolved in PBS and Group B mice (n=11) received PBS only.
All treatments were administered by ip injection 10 hours after LPS injection. Mice were continually monitored and the time of delivery of all pups, as well as the number of pups delivered, was recorded. All mice were autopsied at the end of the experiment to confirm pregnancy and to determine the number of pups retained in utero.

[2] = tested on: BALF neutrophils in female Syrian hamsters; assay: Animal model of smoking related acute lung injury (ET-1 plus cigarette smoke, BALF neutrophils); format: in vivo, hamster; settings: 500 μg IP 60 minutes before 5 μg ET-1, then cigarette smoke two hours, three days
Procedure: Animal models of smoking related acute lung injury. The Animal Care and Utilization Committee of the College of Pharmacy and Allied Health Professions, St. John's University approved all experimental protocols, and the research was conducted according to the requirements of NIH Guide for the Care and Use of Laboratory Animals (revised 1996).
Female Syrian hamsters, weighing approximately 100 g each, were divided into two groups as follows: Group 1 was treated IP with: 1) 500 μg of HJP272 in 0.5 mL Na2CO3 and 2) 5 μg ET-1 in 0.25 mL PBS 60 minutes later, followed immediately by exposure to cigarette smoke for two hours. This regimen was continued for three days.
Group 2 was treated IP with: 1) 0.5 mL Na2CO3 and 2) […] ET-1 in 0.25 mL PBS 60 minutes later, followed immediately by exposure to cigarette smoke for three consecutive days as per Group 1. The animals were placed in a 70×48×38 cm chamber and passively exposed to cigarette smoke produced by a TE-10 smoking machine (Teague Enterprises, Davis, Calif.) that simultaneously burned two filtered research-grade cigarettes (type 2R4F, University of Kentucky). Smoke from both the filtered and burning ends of the cigarette was collected, and then mixed together with air in a separate chamber, thus simulating second-hand smoke exposure. Each cigarette was puffed once per minute for two seconds at a flow rate of 1.05 LPM, yielding 35 mL of smoke. This cycle was repeated nine times before ejecting the cigarette and loading a new one. Proper flow rate was maintained by a vacuum pump that established negative pressure at the exhaust port. Total smoke particulates averaged 87 mg per cubic meter.
All animals were sacrificed 24 hours after completing the smoke exposure regimen to maximize the neutrophil population in the lung, and the percentage of BALF neutrophils was measured (van der Vaart et al. 2004)

BioXTal ET-A receptor = molecular target: T1, BioXTal ET-A receptor (Homo sapiens, UniProt P25101); assay: In vitro competitive binding assay with [125I]Tyr13-ET-1, ET-A receptor; settings: [125I]ET-1 224 pM; 10 ug receptor; 30 to 32° C., two hours; triplicate; read-out: IC50, inhibition of specific [125I] ET-1 binding to ETA receptor
T1 construct: purchased BioXTal
T1 sequence (P25101 21-427): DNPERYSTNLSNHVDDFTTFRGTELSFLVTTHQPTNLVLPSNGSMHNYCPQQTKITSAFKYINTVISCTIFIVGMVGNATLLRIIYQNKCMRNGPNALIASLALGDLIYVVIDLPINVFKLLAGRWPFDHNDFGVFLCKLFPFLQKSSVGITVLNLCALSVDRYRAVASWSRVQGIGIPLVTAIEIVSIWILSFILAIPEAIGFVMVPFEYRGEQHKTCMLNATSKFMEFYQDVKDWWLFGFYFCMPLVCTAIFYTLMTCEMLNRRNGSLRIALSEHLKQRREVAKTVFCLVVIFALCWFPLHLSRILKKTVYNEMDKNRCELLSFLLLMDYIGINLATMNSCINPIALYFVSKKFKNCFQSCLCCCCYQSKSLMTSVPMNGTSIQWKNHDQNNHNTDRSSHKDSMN
Procedure: (§1) In vitro binding assay. Varying concentrations of HJP272, ranging from 10^3 to 10^8 pM, were incubated with 10 ug of BioXTal ET-A or ET-B receptor and 224 pM [^125I]Tyr13-ET-1 in 50 mM NaH2PO4, 150 mM NaCl, 5 mM EDTA, and 0.1% bovine serum albumin.
(§2) For total binding, radio labeled ET-1 and receptor were incubated without the receptor antagonist. For non-specific binding, 300 nM cold ET-1 was substituted for the antagonist. Assay mixtures were incubated at 30 to 32° C. for two hours and the assays were stopped by the addition of cold buffer. Assay mixtures were then quickly filtered through GF/C Whatman filters and washed with cold assay buffer in a Millipore sampling manifold. Filters were collected and counts per minute of the bound radio labeled ET-1 were read by a Packard Cobra Gamma Counter (Perkin Elmer).
(§3) Percent specific binding was calculated for all data points. Assays containing ET-A receptor were run in triplicate and assays containing the ET-B receptor were run in duplicate.

BioXTal ET-B receptor = molecular target: T2, BioXTal ET-B receptor (Homo sapiens, UniProt P24530); assay: In vitro competitive binding assay with [125I]Tyr13-ET-1, ET-B receptor; settings: selectivity ETA versus ETB; ET-B assays in duplicate
T2 construct: purchased BioXTal
T2 sequence (P24530 27-442): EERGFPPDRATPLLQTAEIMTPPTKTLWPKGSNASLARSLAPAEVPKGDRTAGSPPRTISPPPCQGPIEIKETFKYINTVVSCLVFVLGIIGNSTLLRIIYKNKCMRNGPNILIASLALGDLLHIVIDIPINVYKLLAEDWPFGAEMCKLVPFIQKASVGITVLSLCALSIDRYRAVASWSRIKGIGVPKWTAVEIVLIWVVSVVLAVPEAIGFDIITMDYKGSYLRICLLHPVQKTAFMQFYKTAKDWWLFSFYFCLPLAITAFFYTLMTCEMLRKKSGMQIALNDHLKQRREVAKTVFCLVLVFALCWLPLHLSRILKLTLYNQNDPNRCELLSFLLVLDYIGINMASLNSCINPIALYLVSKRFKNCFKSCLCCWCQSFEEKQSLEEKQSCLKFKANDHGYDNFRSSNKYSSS
Procedure: as §1, §2, §3

[3] = tested on: attachment of neutrophils to colonic submucosal venules; settings: inflammatory bowel disease; Anthoni et al. 2006; cited from earlier work

Row | SMILES | percent of prematurely delivered pups ([1]; E15.5 mice, LPS 50 mg/kg, 50 mg/kg ip 10 hours after LPS, PBS control 39.7) [%] | mice that delivered prematurely ([1]; E15.5 mice, LPS 50 mg/kg, 50 mg/kg ip 10 hours after LPS, control 11 out of 11) | control of premature labor and delivery ([1]; LPS followed by compound versus LPS followed by vehicle) | prevention of premature expulsion of pups ([1]; LPS followed by compound versus LPS followed by vehicle, P<0.0001) | average delivery time (T) ([1]; the six treated mice that delivered, LPS 50 mg/kg, PBS control T10.9+/−0.61, p<0.0001) [h] | craniofacial anomalies in pups ([1]; transient exposure, late in gestation) | melting point [°C] | effect on the ET-1-induced rise of BALF neutrophils (words) [2] | effect on the ET-1-induced rise of BALF neutrophils (words) ([2]; listed as ETA-RA) | effect on the ET-1-induced rise of BALF neutrophils (words) ([2]; listed as HJP-272) | pIC50 (BioXTal ET-A receptor) | ratio of IC50 for the endothelin B receptor to IC50 for the endothelin A receptor (BioXTal ET-B receptor) | attachment of neutrophils to colonic submucosal venules [3]
1 | CCc1cc2c(cc1Cn1c(C(=O)O)c(Cc3cccc(C(=O)O)c3)c(=O)c3cc(O)ccc31)OCO2 [HJP272, 3-(3-carboxybenzyl)-1-((6-ethylbenzo[d][1,3]dioxol-5-yl)methyl)-6-hydroxy-4-oxo-1,4-dihydroquinoline-2-carboxylic acid] | 30.0 | six out of eight | controlled preterm labor and delivery in our mouse model of infection-associated preterm labor very effectively; also recorded: significantly better control of premature delivery | significantly greater prevention of premature expulsion of pups | 15.0 ± 1.8 | None of the pups in the work presented here demonstrated such abnormalities | 206 to 208 | reversed | reversed this effect | reversed | 7.15 | 219.2 | –
2 | COc1ccccc1Oc1c(NS(=O)(=O)c2ccc(C(C)(C)C)cc2)nc(-c2ncccn2)nc1OCCO [bosentan] | – | – | – | – | – | – | – | – | – | – | – | – | markedly reduced attachment
